Several values for one entry are separate records, joined by “and”; a condition that tells them apart may be missing. Equal values may be shown once.

Here are results for one molecule from patent EP4684782A1, “COSMETIC COMPOSITION FOR ANTIOXIDATION” (LG Chem, Ltd., priority 2023, dated 2025).

The nature of data set [1]: DPPH radical scavenging ability (antioxidant power), absorbance at 520 nm. It is filed as biochemical. Conditions: for Antioxidant power, Average: average of three measurements, 30 min; for Antioxidant power: single measurements (Once, Two times, Three times), 0.5 mM DPPH, room temperature, 30 minutes. As for the experimental part:
The DPPH radical expresses a dark purple color. The DPPH radical is reduced by the antioxidant effective ingredient, and the dark purple color is discolored. The performance of the antioxidant effective ingredient can be measured using such characteristics.
The 3HP aqueous solution obtained from Preparation Example 1 was prepared at five different concentrations (0 wt.%, 1 wt.%, 5 wt.%, 10 wt.%, 70 wt.%), 50 µℓ of each 3HP aqueous solution and 150 µℓ of methanol were dispensed into a 96-well plate and reacted at room temperature for 30 minutes. The absorbance (ODcontrol group, wavelength 520 nm) was repeatedly measured three times.
A DPPH aqueous solution containing 0.5 mM DPPH (free radical, 95%, Alfa Aesar) was prepared. 50 µℓ of methanol and 150 µℓ of the DPPH aqueous solution were dispensed into a 96-well plate and reacted at room temperature for 30 minutes. The absorbance (ODnegative control group, wavelength 520 nm) was repeatedly measured three times.
A DPPH aqueous solution containing 0.5 mM DPPH (free radical, 95%, Alfa Aesar) was prepared. The 3HP aqueous solution obtained from Preparation Example 1 was prepared at five different concentrations (0 wt.%, 1 wt.%, 5 wt.%, 10 wt.%, 70 wt.%), and 50 µℓ of each 3HP aqueous solution and 150 µℓ of the DPPH aqueous solution were dispensed into a 96-well plate and reacted at room temperature for 30 minutes. The absorbance (ODexperimental group, wavelength 520 nm) was repeatedly measured three times.
The absorbance at a wavelength of 520 nm was measured using a micro reader.
The DPPH radical scavenging ability (antioxidant power) of 3HP was calculated according to the following Equation 1, and the results are shown in Tables below. [formula]
In general terms: The DPPH test is a chemical assay of radical scavenging.

In data set [2] the test system is human skin tissues. The data set is described as follows: Skin tissue cell stability experiment (explant tissue culture, HE staining). Format: cell-based. Conditions: 3HP applied at concentrations of 1%, 5%, and 10%, tissues obtained 24 hours after application, FIG. 1. As for the experimental part:
The human skin tissues provided for research purposes (IRB No. 4-2023-0054; Institutional Review Board, Severance Medical Center, Yonsei University College of Medicine) was defatted, and washed several times with PBS (phosphate buffered saline; Lonza) to remove residual impurities. The skin tissues were prepared into a size of 1 cm × 1 cm for each test group, and the test composition was applied to the prepared skin tissues, and PBS was applied to the negative control. The skin tissues in which the absorption of the test composition has been completed were cultured in a special medium at 37°C, 5% CO2.
Tissues obtained 24 hours after application of the test composition were fixed with 10% formalin, and then paraffin blocks and paraffin-embedded slides were prepared. The deparaffinized tissues were stained for nuclei with hematoxylin (S3309; dako) solution, and then washed in running water. The cytoplasm was stained with eosin (318906; sigma) solution, and then the tissues were completely dehydrated through washing process and fixed using a mounting solution. The epidermis and papillary dermis of the fixed tissues were photographed at 400x magnification using an optical microscope (BX43F; OLYMPUS).

Take `O=C(O)CCO` [Example 3HP, 3-hydroxypropionic acid]: the “Antioxidant power, Average” value in data set [1] (3HP treated concentration 1 %) is recorded as 0.904%; in data set [1] (3HP treated concentration 5%), 2.474%; in data set [1] (3HP treated concentration 10 %), 5.175%; in data set [1] (3HP treated concentration 70 %) it was 21.011%. Further, the Antioxidant power in data set [1] (3HP treated concentration 1 %) is 0.850% and 1.042% and 0.819%; in data set [1] (3HP treated concentration 5%), 2.452% and 2.552% and 2.419%; in data set [1] (3HP treated concentration 10 %) it was 5.209% and 5.205% and 5.111%; in data set [1] (3HP treated concentration 70 %), 20.888% and 21.142% and 21.002%. Also, the “DPPH radical scavenging ability” value in data set [1] (under the treatment concentrations tested (1, 5, 10, 70 wt.%), result in words) is listed as “significant DPPH radical scavenging ability was exhibited”. For the same molecule, the “damage to the epidermis and dermis or separation between tissues” value in data set [2] is “no damage to the epidermis and dermis or separation between tissues were observed”.
